Marks after values point to notes of the source that are not given here.
Experiments:
[1] = test system: BALB/c mice; assay: Tissue fatty acid composition, BALB/c α-linolenic acid feeding trial (8 weeks); type: in vivo
Method: Female BALB/c mice were purchased from Harlan ltd. (Briester, Oxon, UK) at 8 weeks of age and fed a normal diet for 1 week to stabilize all metabolic conditions. […] Mice were maintained at 4 per cage and exposed to a 12-h light:dark cycle at a constant temperature of 25° C. The mice were held at the Biological Services Unit in University College Cork. The animal experimentation was performed according to the guidelines for the care and use of laboratory animals approved by the Department of Health and Children.
(§1) Animals were fed standard mouse chow ad libitum with free access to water at all times. […] Following 8 weeks on experimental diets, the animals were sacrificed by cervical dislocation. Liver, adipose tissue and brain were removed from the carcasses, blotted dry on filter paper, weighed and frozen in liquid nitrogen. All samples were stored at −80° C. until processed.
Lipids were extracted according to the method by O'Fallon et al. (20). Briefly, samples were cut into 1.5-mm rectangular strips and placed into a screw-cap Pyrex culture tube together with 0.7 ml of 10 N KOH in water and 5.3 ml of MeOH. The tubes were incubated in a 55° C. water bath for 1.5 h with vigorous hand-shaking every 20 min. After cooling below room temperature, 0.58 ml of 24 N H2SO4 in water was added. The tubes were mixed by inversion and with precipitated K2SO4 present incubated again in 55° C. for 1.5 h with hand-shaking every 20 min. FAME were recovered by addition of 3 ml hexane and vortex mixed and separated by GLC (Varian 3400, Varian, Walnut Creek, Calif. USA fitted with a flame ionization detector) using a Chrompack CP Sil 88 column (Chrompack, Middleton, The Netherlands, 100 m×0.25 mm i.d., 0.20 μm film thickness) and He as carrier gas. The column oven was initially programmed at 80° C. for 8 min, and increased 8.5° C./min to a final column temperature of 200° C. The injection volume was 0.6 μl, with automatic sample injection on a SPI 1093 splitless on-column temperature programmable injector. Data were recorded and analysed on a Minichrom PC system (VG Data System, Manchester, U.K.). Peaks were identified with reference to retention times of fatty acids in a standard mixture. All fatty acid results are shown as mean±standard error mean (SEM) g/100 g FAME.

[2] = Body weight gain, BALB/c α-linolenic acid trial; type: in vivo, BALB/c mice; conditions: 8 week trial period
Method: as §1

[3] = test system: SCID mice; assay: Tissue fatty acid composition, SCID mouse colitis feeding study (10 weeks); type: in vivo
Method: (§2) Materials and Methods Severe Combined Immuno Deficient (SCID) mice were used in this study, which had been induced with colitis through adoptive transfer of splenic CD4^+ CD45RB^high T cells from BALB/c mice. […] Ten weeks after colitis induction, cytokine production by splenocytes was measured in vitro by ELISA, myeloperoxidase (MPO) activity was determined in colonic homogenates and fatty acid composition in liver, adipose tissue, cecum and colon was determined by gas liquid chromatography (GLC). Similar studies have also been conducted in pigs (data not shown here) and similar results obtained.
SCID mice were purchased from Harlan ltd. (Briester, Oxon, UK) at 6 weeks of age and fed a normal diet for 1 week to stabilize all metabolic conditions. Each cage contained one mouse. Mice were exposed to a 12-h light:dark cycle and maintained at a constant temperature of 25° C. One week after arrival, mice were divided into five groups for different dietary treatments (Table I).
For linoleic acid and c9t11 CLA treatment, a powdered diet blended with the drug was administered for 10 weeks to yield a dose of drug at approximately 90 mg/day/mouse (this is based on preliminary experiments by Bassaganya-Riera et al. (22) that established an optimal dose of fatty acids of 1 g/100 g of diet).
After the adoptive transfer, mice were weighed three times a week and examined for clinical signs of disease associated with colitis (ie. rectal bleeding, diarrhoea and rectal prolapse). After 10 weeks on experimental diets, the mice were sacrificed by cervical dislocation. Livers, adipose tissue, spleens, colons and cecums were removed from the carcasses, blotted dry on filter paper, weighed and frozen in liquid nitrogen. All samples were stored at −80° C. until processed. The colon was divided into different sections for MPO activity and fatty acid composition.
Lipids were extracted with Chloroform:Methanol 2:1 v/v according to Folch et al. (25). Briefly, tissue or faecal samples, ˜1 g liver, 300 mg small intestine, 200 mg adipose tissue, 250 mg colon, 800 mg cecum or 100 mg feaces were homogenised in over a 25 fold excess of CHCl3:CH3OH (2:1 v/v) and washed with 0.88% KCl solution. Excess solvent was dried down under a gentle stream of N2 at 40° C. and lipids were stored at −20° C. in 1 ml chloroform. Fatty acid methyl esters (FAME) were prepared using first 10 ml 0.5N NaOH in methanol for 10 min at 90° C. followed by 10 ml 14% BF3 in methanol for 10 min at 90° C. (26). FAME was recovered with hexane. Prior to GC analysis samples were dried over 0.5 g of anhydrous sodium sulphate for an hour and stored at −20° C. FAME were separated by gas liquid chromatography (GLC Varian 3400, Varian, Walnut Creek, Calif. USA fitted with a flame ionization detector) using a Chrompack CP Sil 88 column (Chrompack, Middleton, The Netherlands, 100 m×0.25 mm i.d., 0.20 μm film thickness) and He as a carrier gas. The column oven was programmed to be held initially at 80° C. for 8 minutes then increased 8.5° C./min to a final column temperature of 200° C. The injection volume used was 0.6 μl with automatic sample injection with a splitless on SPI on-column temperature programmable injector. Data was recorded and analysed on a Minichrom PC system (VG Data System, Manchester, U.K.). Tri-heptadecanoate (Sigma) was used as an internal standard, and peaks were identified with reference to retention times of fatty acids in a standard mixture. All fatty acid results are shown as mean±SD (n=8) g/100 g FAME.

[4] = test system: splenocytes; assay: Cytokine production by stimulated splenocytes of fed SCID mice with colitis; type: in vivo
Method: as §2
Cytokine production in response to defined stimuli, in vitro, was measured using enzyme-linked immunosorbent assay (ELISA). Splenocyte isolation was performed using an erythrocyte lysing kit (R&D Systems). The spleens of all mice were removed at the time of sacrifice, blotted on filter paper and weighed. Each spleen was immediately placed in Hanks' buffer containing 10% fetal calf serum. The spleen was teased apart and sieved through a cell strainer into a 50 ml centrifuge tube. Cells were centrifuged for 10 minutes at 200 g. The cells were resuspended in 2 ml M-lyse buffer, which lyses red blood cells, and incubated for 8 minutes at room temperature. Lysis was deactivated using wash buffer and the cell suspension was centrifuged for 10 minutes at 200 g. Cells were resuspended in DMEM (10% fetal calf serum, 1% Pen/Strep, Sigma) and diluted to 1×10^6 cells/ml for in vitro culturing. The isolated lymphocytes were cocultured with the proinflammatory bacterium Salmonella typhimurium UK1 (1×10^6 cells/ml) and with antiCD3-antiCD28 monoclonal antibodies for 48 hours at 37° C. Cell supernatants were isolated and stored at −80° C. Cytokine analysis was performed on the supernatants using a BD™ Cytometric Bead Array (CBA) Mouse Inflammation Kit (BD Biosciences, US).

[5] = adipose tissue, 8 weeks, SEM, n = 8
[6] = stimulation with S. typhimurium UK1
[7] = stimulation with antiCD3-antiCD28

CC/C=C\C/C=C\C/C=C\CCCCCCCC(=O)O [B, α-linolenic acid]
C16:0 palmitic acid, adipose tissue [1, 5]: 28.73 ± 2.16^c g/100 g FAME | C16:1c9 palmitoleic acid, adipose tissue [1, 5]: 6.07 ± 2.01 g/100 g FAME | C18:0 stearic acid, adipose tissue [1, 5]: 8.00 ± 2.33 g/100 g FAME | C18:1c9 oleic acid, adipose tissue [1, 5]: 14.83 ± 3.01 g/100 g FAME | C18:2n-6 linoleic acid, adipose tissue [1, 5]: 18.80 ± 0.81^c g/100 g FAME | C18:3n-3 linolenic acid, adipose tissue [1, 5]: 7.35 ± 2.15^c,d g/100 g FAME | C18:3n-6 γ-linolenic acid, adipose tissue [1, 5]: 0.13 ± 0.03 g/100 g FAME | C18:4n-3 stearidonic acid, adipose tissue [1, 5]: 0.12 ± 0.03 g/100 g FAME | C20:3n-6 dihomo-γ-linolenic acid, adipose tissue [1, 5]: 0.30 ± 0.09 g/100 g FAME | C20:4n-6 arachidonic acid, adipose tissue [1, 5]: 5.27 ± 2.04^c,d g/100 g FAME | C20:5n-3 eicosapentaenoic acid, adipose tissue [1, 5]: 2.37 ± 0.76^c,d g/100 g FAME | C22:5n-3 docosapentaenoic acid, adipose tissue [1, 5]: 0.55 ± 0.14^c,d g/100 g FAME | C22:6n-3 docosahexaenoic acid, adipose tissue [1, 5]: 1.17 ± 0.36 g/100 g FAME | n-6/n-3, adipose tissue [1, 5]: 2.15 ± 0.15^c,d | C16:0, brain ([1]; brain, 8 weeks, SEM, n = 8): 32.38 ± 0.44^c g/100 g FAME | C16:1c9, brain ([1]; brain, 8 weeks, SEM, n = 8): 0.94 ± 0.03^a,c,d g/100 g FAME | C18:0, brain ([1]; brain, 8 weeks, SEM, n = 8): 19.87 ± 0.14^a g/100 g FAME | C18:1c9, brain ([1]; brain, 8 weeks, SEM, n = 8): 17.61 ± 0.24^ g/100 g FAME | C18:2n-6, brain ([1]; brain, 8 weeks, SEM, n = 8): 1.54 ± 0.10^a,c,d g/100 g FAME | C20:4n-6, brain ([1]; brain, 8 weeks, SEM, n = 8): 6.88 ± 0.12^c,d g/100 g FAME | C20:5n-3, brain ([1]; brain, 8 weeks, SEM, n = 8): 0.15 ± 0.01^c,d g/100 g FAME | C22:5n-3, brain ([1]; brain, 8 weeks, SEM, n = 8): 0.24 ± 0.01^c g/100 g FAME | C22:6n-3, brain ([1]; brain, 8 weeks, SEM, n = 8): 8.87 ± 0.30^a g/100 g FAME | n-6/n-3, brain ([1]; brain, 8 weeks, SEM, n = 8): 0.89 ± 0.03^a | C18:3n-3, brain ([1]; brain, 8 weeks, SEM, n = 8, ND = not detected): 0.18 ± 0.02^a,c,d g/100 g FAME | higher concentrations of α-linolenic acid and EPA in liver and adipose tissue ([1]; compared with group C and group D, p<0.001): 10 fold | arachidonic acid/EPA ratio in adipose tissue, fold lower ([1]; compared with group D): ~20 fold | arachidonic acid/EPA ratio in liver, fold lower ([1]; compared with group D): approximately 30 fold | C16:0 palmitic acid, liver ([1]; liver, 8 weeks, SEM, n = 8): 23.89 ± 0.71^c,d g/100 g FAME | C16:1c9 palmitoleic acid, liver ([1]; liver, 8 weeks, SEM, n = 8): 2.07 ± 0.18^a,d g/100 g FAME | C18:0 stearic acid, liver ([1]; liver, 8 weeks, SEM, n = 8): 12.36 ± 0.44^a,d g/100 g FAME | C18:1c9 oleic acid, liver ([1]; liver, 8 weeks, SEM, n = 8): 10.16 ± 0.62^c,d g/100 g FAME | C18:2n-6 linoleic acid, liver ([1]; liver, 8 weeks, SEM, n = 8): 18.32 ± 0.21^d g/100 g FAME | C18:3n-3 linolenic acid, liver ([1]; liver, 8 weeks, SEM, n = 8): 9.47 ± 0.64^c,d g/100 g FAME | C18:3n-6 γ-linolenic acid, liver ([1]; liver, 8 weeks, SEM, n = 8): 0.17 ± 0.01^c,d g/100 g FAME | C18:4n-3 stearidonic acid, liver ([1]; liver, 8 weeks, SEM, n = 8): 0.16 ± 0.01^c,d g/100 g FAME | C20:3n-6 dihomo-γ-linolenic acid, liver ([1]; liver, 8 weeks, SEM, n = 8): 0.61 ± 0.02^a g/100 g FAME | C20:4n-6 arachidonic acid, liver ([1]; liver, 8 weeks, SEM, n = 8): 5.57 ± 0.14^a,c,d g/100 g FAME | C20:5n-3 eicosapentaenoic acid, liver ([1]; liver, 8 weeks, SEM, n = 8): 3.07 ± 0.12^a,c,d g/100 g FAME | C22:5n-3 docosapentaenoic acid, liver ([1]; liver, 8 weeks, SEM, n = 8): 0.94 ± 0.05^c,d g/100 g FAME | C22:6n-3 docosahexaenoic acid, liver ([1]; liver, 8 weeks, SEM, n = 8): 5.66 ± 0.28^d g/100 g FAME | n-6/n-3, liver ([1]; liver, 8 weeks, SEM, n = 8): 1.30 ± 0.07^c,d | body weight gain [2]: did not significantly influence

CCCCCC/C=C/C=C\CCCCCCCC(=O)O [c9, t11 CLA, cis-9, trans-11 CLA]
16:1n-7 (palmitoleic acid) in all tissues ([3]; all tissues): higher | 20:4n-6 in cecum digests ([3]; cecum digests): significant decrease | 16:0 (palmitic acid) in colon ([3]; colon): significantly higher | arachidonic acid, 20:4n-6 (AA) in liver ([3]; compared to other groups): decrease | c9, t11 CLA in all tissues ([3]; compared to other groups): much higher | IFN-γ levels [4, 6]: reduced | IL-6 levels [4, 6]: reduced | TNF-α levels [4, 6]: 1428.7 | IFN-γ levels [4, 7]: 1334.2 | IL-6 levels [4, 7]: 213.7 | TNF-α levels [4, 7]: 458.9
